Test results reported in ChEMBL document CHEMBL5360649, “Potential Broad-Spectrum Antimicrobial, Wound Healing, and Disinfectant Cationic Peptide Crafted from Snake Venom” (J Med Chem, 2023).
The source made the active and inactive calls.

What was measured:
[1] = tested on: Escherichia coli; experiment: Antibacterial activity against Escherichia coli assessed as inhibition of bacterial growth incubated for 0.5 to 8.5 hrs by microtiter plate reader analysis; type: functional, organism-based; conditions: dose 1.25-40 µM, time 0.5-8.5 hrs
[2] = tested on: Staphylococcus aureus; experiment: Induction of morphological changes in methicillin-resistant Staphylococcus aureus assessed as cellular destruction at MIC concentration incubated for 6 hrs by AFM analysis; type: functional, organism-based
[3] = tested on: Klebsiella pneumoniae; experiment: Induction of morphological changes in carbapenem resistant Klebsiella pneumoniae ATCC BAA-1705 assessed as membrane damage at MIC concentration incubated for 60 mins by SEM analysis; type: functional, organism-based
[4] = tested on: Cell membrane; experiment: Induction of inner membrane permeabilization in Klebsiella pneumoniae assessed as increase in fluorescence at 0.5 to 1 times of MIC incubated for 60 mins by PI staining based fluorescence analysis; type: subcellular
[5] = tested on: Staphylococcus aureus; experiment: Antibiofilm activity against methicillin-resistant Staphylococcus aureus assessed as increase in dead cell proportion at MIC incubated overnight by SYTO9/PI staining based fluorescence analysis; type: functional, organism-based
[6] = tested on: Klebsiella pneumoniae; experiment: Antibiofilm activity against preformed biofilm in Klebsiella pneumoniae assessed as decrease in metabolic activity at MIC incubated overnight by MTT assay; type: functional, organism-based
[7] = species on record: Rattus norvegicus; experiment: Induction of wound healing in surgically-induced Albino Wistar rat wound model assessed as proper formation of sebaceous gland at 10 uM measured after 11 days by H&E staining based analysis; type: functional; conditions: time 11.0 day

Measured: Activity

H-FLPIIKWVKKFFWRWR-OH
active: [1] Dose-Dependent Effect | [2] | [3] | [4] | [5] | [6] | [7]
